Results from ChEMBL document CHEMBL1124318, “Quinazoline antifolates inhibiting thymidylate synthase: synthesis of four oligo(L-gamma-glutamyl) conjugates of N10-propargyl-5,8-dideazafolic acid and their enzyme inhibition” (J Med Chem, 1989).

Experiments:
[1] = target: T1, Thymidylate synthase (Homo sapiens, UniProt P04818); experiment: Compound was tested for inhibition of human (WI-L2) thymidylate synthase; details: read-out: Ki app
Target sequence in this assay (P04818 whole entry): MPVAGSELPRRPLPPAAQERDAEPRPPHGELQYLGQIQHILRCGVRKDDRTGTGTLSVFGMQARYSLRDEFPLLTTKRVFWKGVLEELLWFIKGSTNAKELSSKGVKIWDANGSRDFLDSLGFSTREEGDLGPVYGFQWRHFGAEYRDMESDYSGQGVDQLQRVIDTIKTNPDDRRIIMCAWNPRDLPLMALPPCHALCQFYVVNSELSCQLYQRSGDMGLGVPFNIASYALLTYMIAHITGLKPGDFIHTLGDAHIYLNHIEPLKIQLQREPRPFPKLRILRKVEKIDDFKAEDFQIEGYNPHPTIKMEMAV

[2] = target: T1, Thymidylate synthase; experiment: Fold increase of inhibition of human thymidylate synthase from that of control
Target sequence in this assay (P04818 2-313 limits assumed): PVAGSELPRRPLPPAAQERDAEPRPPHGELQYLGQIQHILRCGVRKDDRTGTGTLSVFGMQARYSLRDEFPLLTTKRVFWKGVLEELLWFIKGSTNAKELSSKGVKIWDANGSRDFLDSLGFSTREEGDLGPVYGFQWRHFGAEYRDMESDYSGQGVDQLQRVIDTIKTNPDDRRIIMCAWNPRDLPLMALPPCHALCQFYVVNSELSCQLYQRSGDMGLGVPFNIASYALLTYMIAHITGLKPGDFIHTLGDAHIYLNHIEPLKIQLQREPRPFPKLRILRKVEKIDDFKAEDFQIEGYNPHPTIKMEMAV

SMILES	Ki [1] [nM]	Fold increase [2]
C#CCN(Cc1ccc2nc(N)[nH]c(=O)c2c1)c1ccc(C(=O)NC(CCC(=O)NC(CCC(=O)NC(CCC(=O)NC(CCC(=O)NC(CCC(=O)O)C(=O)O)C(=O)O)C(=O)O)C(=O)O)C(=O)O)cc1 (stereo not drawn)	0.042	–
C#CCN(Cc1ccc2nc(N)nc(O)c2c1)c1ccc(C(=O)NC(CCC(=O)NC(CCC(=O)NC(CCC(=O)O)C(=O)O)C(=O)O)C(=O)O)cc1 (stereo not drawn)	0.072	97
C#CCN(Cc1ccc2nc(N)[nH]c(=O)c2c1)c1ccc(C(=O)NC(CCC(=O)NC(CCC(=O)O)C(=O)O)C(=O)O)cc1 (stereo not drawn)	0.224	–
C#CCN(Cc1ccc2nc(N)nc(O)c2c1)c1ccc(C(=O)NC(CCC(=O)NC(CCC(=O)O)C(=O)O)C(=O)O)cc1 (stereo not drawn)	–	31
C#CCN(Cc1ccc2nc(N)[nH]c(=O)c2c1)c1ccc(C(=O)NC(CCC(=O)NC(CCC(=O)NC(CCC(=O)NC(CCC(=O)O)C(=O)O)C(=O)O)C(=O)O)C(=O)O)cc1 (stereo not drawn)	0.041	–
C#CCN(Cc1ccc2nc(N)nc(O)c2c1)c1ccc(C(=O)NC(CCC(=O)NC(CCC(=O)NC(CCC(=O)NC(CCC(=O)O)C(=O)O)C(=O)O)C(=O)O)C(=O)O)cc1 (stereo not drawn)	–	171
C#CCN(Cc1ccc2nc(N)nc(O)c2c1)c1ccc(C(=O)NC(CCC(=O)NC(CCC(=O)NC(CCC(=O)NC(CCC(=O)NC(CCC(=O)O)C(=O)O)C(=O)O)C(=O)O)C(=O)O)C(=O)O)cc1 (stereo not drawn)	–	167
